Results as given in patent publication US20080234629A1, “WATER ELECTROLYSIS TO FACILITATE DRUG DELIVERY BY IONTOPHORESIS” (priority 2007, published 2008).

Assay: Solubility of acyclovir in the aqueous portion of the formulation, from propylene glycol/water solubility measurements
Format: physicochemical
Conditions: estimated from propylene glycol/water solubility measurements
Text: Assuming that the electrolysis is 100% efficient, the expected proton generation is […] (0.4 mA×600 sec×6.2×10^18, coulomb, ÷[…]; assuming each electron generate one proton). Thus the electrolysis of water provides enough protons to ionize the soluble portion of the dose. Since the current density in the invented system is typical for iontophoresis, the rate of proton generation in this system can be realized in other iontophoretic systems. Because the coulombic dose in this iontophoretic system is at the low end of iontophoretic doses, larger quantities of protons could be generated for use in other applications.

## Nc1nc2c(ncn2COCCO)c(=O)[nH]1 [Acyclovir]
  solubility of acyclovir in the aqueous portion of the formulation: ~0.3 % by weight
